Measurements taken from ChEMBL document CHEMBL1777706, “Discovery of selective and orally available spiro-3-piperidyl ATP-competitive MK2 inhibitors” (Bioorg Med Chem Lett, 2011).
Active and inactive are the calls of the source. The calls are words filed in the database; no cut-off is given here.

Test system: not listed separately
Experiment: AUC in po dosed rat
Type: ADME, organism-based
Details: plasma

Row | AUC | Structure (SMILES)
1 | 0.882 µM·h | COCCCOc1ccc(-c2nccc(-c3cc4c([nH]3)C3(CCCNC3)CNC4=O)n2)cn1 (racemic)
2 | 0.472 µM·h | O=C1NCC2(CCCNC2)c2[nH]c(-c3ccnc(-c4cc5ccccc5o4)n3)cc21 (racemic)

Row | Structure (SMILES) | AUC
3 | CCN1CCC2(CC1)CNC(=O)c1cc(-c3ccnc(-c4cc5ccccc5o4)n3)[nH]c12 | 0.154 µM·h

Target: Serine/threonine-protein kinase Chk2 (Homo sapiens) (UniProt O96017)
Experiment: Inhibition of CHK2 at 1 uM
Details: not given

Chain of Serine/threonine-protein kinase Chk2 (Homo sapiens) (O96017 whole entry): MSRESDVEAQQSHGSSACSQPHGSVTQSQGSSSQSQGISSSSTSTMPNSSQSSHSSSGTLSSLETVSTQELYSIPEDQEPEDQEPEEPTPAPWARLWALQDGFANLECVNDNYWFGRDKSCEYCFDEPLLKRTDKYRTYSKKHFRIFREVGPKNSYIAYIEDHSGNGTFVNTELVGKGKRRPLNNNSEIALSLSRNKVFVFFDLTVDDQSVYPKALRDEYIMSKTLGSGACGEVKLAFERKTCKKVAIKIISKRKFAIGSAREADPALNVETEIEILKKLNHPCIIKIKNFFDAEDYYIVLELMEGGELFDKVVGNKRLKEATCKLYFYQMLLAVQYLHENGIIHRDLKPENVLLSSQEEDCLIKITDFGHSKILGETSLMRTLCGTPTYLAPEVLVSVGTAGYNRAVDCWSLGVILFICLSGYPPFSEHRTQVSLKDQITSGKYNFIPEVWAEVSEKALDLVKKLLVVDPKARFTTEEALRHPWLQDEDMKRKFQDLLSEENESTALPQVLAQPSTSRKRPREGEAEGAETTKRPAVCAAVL

Row | inhibition | Structure (SMILES)
4 | > 80% | COCCCOc1ccc(-c2nccc(-c3cc4c([nH]3)C3(CCCNC3)CNC4=O)n2)cn1 (racemic)
5 | > 80% | O=C1NCC2(CCCNC2)c2[nH]c(-c3ccnc(-c4cc5ccccc5o4)n3)cc21 (racemic)

Row | Structure (SMILES) | inhibition
6 | CCN1CCC2(CC1)CNC(=O)c1cc(-c3ccnc(-c4cc5ccccc5o4)n3)[nH]c12 | > 80%

Target: Serine/threonine-protein kinase pim-3 (Homo sapiens) (UniProt Q86V86)
Experiment: Inhibition of PIM3 at 1 uM
Details: not given

Row | inhibition | Structure (SMILES)
7 | > 80% | COCCCOc1ccc(-c2nccc(-c3cc4c([nH]3)C3(CCCNC3)CNC4=O)n2)cn1 (racemic)
8 | > 80% | O=C1NCC2(CCCNC2)c2[nH]c(-c3ccnc(-c4cc5ccccc5o4)n3)cc21 (racemic)

Row | Structure (SMILES) | inhibition
9 | CCN1CCC2(CC1)CNC(=O)c1cc(-c3ccnc(-c4cc5ccccc5o4)n3)[nH]c12 | > 80%

Test system: not listed separately
Experiment: Inhibition of p38
Details: not given

Row | inhibition | Structure (SMILES)
10 | inactive | COCCCOc1ccc(-c2nccc(-c3cc4c([nH]3)C3(CCCNC3)CNC4=O)n2)cn1 (racemic)
11 | inactive | O=C1NCC2(CCCNC2)c2[nH]c(-c3ccnc(-c4cc5ccccc5o4)n3)cc21 (racemic)

Row | Structure (SMILES) | inhibition
12 | CCN1CCC2(CC1)CNC(=O)c1cc(-c3ccnc(-c4cc5ccccc5o4)n3)[nH]c12 | inactive

Target: T1, MAP kinase-activated protein kinase 2 (Homo sapiens, UniProt P49137)
Experiment: Inhibition of MK2 in LPS-stimulated human THP1 cells assessed as inhibition of Hsp27 phosphorylation pretreated 60 mins before LPS challenge measured after 10 mins
Type: cell-based, THP-1
Details: not given

T1 sequence (P49137 whole entry): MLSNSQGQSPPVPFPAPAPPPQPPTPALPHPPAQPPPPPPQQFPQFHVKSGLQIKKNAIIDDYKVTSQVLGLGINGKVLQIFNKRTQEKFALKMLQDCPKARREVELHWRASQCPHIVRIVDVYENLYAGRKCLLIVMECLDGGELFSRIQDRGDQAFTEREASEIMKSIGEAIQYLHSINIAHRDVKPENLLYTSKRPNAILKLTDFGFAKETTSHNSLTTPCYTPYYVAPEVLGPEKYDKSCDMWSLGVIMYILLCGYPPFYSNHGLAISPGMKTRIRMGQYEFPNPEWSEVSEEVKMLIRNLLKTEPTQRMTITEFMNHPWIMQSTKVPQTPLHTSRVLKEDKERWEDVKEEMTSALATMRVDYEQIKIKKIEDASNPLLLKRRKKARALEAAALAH

Row | Structure (SMILES) | EC50
13 | COCCCOc1ccc(-c2nccc(-c3cc4c([nH]3)C3(CCCNC3)CNC4=O)n2)cn1 (racemic) | 1400 nM
14 | CCN1CCC2(CC1)CNC(=O)c1cc(-c3ccnc(-c4cc5ccccc5o4)n3)[nH]c12 | > 10000 nM

Target: Mitogen-activated protein kinase 3 (Homo sapiens) (UniProt P27361)
Experiment: Inhibition of ERK1 at 1 uM
Details: not given

Chain of Mitogen-activated protein kinase 3 (Homo sapiens) (P27361 whole entry): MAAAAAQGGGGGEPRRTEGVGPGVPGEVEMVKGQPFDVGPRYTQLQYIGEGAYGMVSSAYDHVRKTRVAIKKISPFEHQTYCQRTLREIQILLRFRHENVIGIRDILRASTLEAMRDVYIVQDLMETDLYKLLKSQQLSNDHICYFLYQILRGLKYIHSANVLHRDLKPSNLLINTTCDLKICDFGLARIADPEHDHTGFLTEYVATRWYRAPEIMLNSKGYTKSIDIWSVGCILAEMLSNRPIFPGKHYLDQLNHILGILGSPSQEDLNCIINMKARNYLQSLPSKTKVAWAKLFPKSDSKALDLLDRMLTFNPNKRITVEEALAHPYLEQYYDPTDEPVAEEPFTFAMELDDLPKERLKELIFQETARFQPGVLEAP

Row | inhibition | Structure (SMILES)
15 | > 80% | COCCCOc1ccc(-c2nccc(-c3cc4c([nH]3)C3(CCCNC3)CNC4=O)n2)cn1 (racemic)
16 | > 80% | O=C1NCC2(CCCNC2)c2[nH]c(-c3ccnc(-c4cc5ccccc5o4)n3)cc21 (racemic)

Row | Structure (SMILES) | inhibition
17 | CCN1CCC2(CC1)CNC(=O)c1cc(-c3ccnc(-c4cc5ccccc5o4)n3)[nH]c12 | > 80%

Test system: PBMC
Experiment: Antiinflammatory activity in human PBMC cells assessed as inhibition of LPS-induced TNFalpha production pretreated 30 mins before LPS challenge measured after 4 hrs by ELISA
Type: functional, cell-based
Details: not given

Row | Structure (SMILES) | EC50
18 | COCCCOc1ccc(-c2nccc(-c3cc4c([nH]3)C3(CCCNC3)CNC4=O)n2)cn1 (racemic) | 920 nM

Target: T2, Serine/threonine-protein kinase 17A (Homo sapiens) (UniProt Q9UEE5)
T2 sequence (whole entry): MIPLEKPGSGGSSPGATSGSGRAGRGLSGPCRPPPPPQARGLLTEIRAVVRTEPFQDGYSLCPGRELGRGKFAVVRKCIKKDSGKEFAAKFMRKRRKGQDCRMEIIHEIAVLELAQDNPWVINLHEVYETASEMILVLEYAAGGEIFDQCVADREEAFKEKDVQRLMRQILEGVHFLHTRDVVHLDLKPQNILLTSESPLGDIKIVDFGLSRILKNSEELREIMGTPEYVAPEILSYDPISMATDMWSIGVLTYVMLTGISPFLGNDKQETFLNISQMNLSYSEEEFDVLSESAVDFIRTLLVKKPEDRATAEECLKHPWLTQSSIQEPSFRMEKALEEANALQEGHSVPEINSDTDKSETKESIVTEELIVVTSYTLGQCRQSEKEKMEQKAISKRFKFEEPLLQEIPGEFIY
Experiment: Inhibition of DRAK1 at 1 uM
Details: not given

Row | inhibition | Structure (SMILES)
19 | > 80% | COCCCOc1ccc(-c2nccc(-c3cc4c([nH]3)C3(CCCNC3)CNC4=O)n2)cn1 (racemic)
20 | > 80% | O=C1NCC2(CCCNC2)c2[nH]c(-c3ccnc(-c4cc5ccccc5o4)n3)cc21 (racemic)

Row | Structure (SMILES) | inhibition
21 | CCN1CCC2(CC1)CNC(=O)c1cc(-c3ccnc(-c4cc5ccccc5o4)n3)[nH]c12 | > 80%

Test system: not listed separately
Experiment: Half life in rat liver microsomes
Type: ADME, Microsome
Details: not given

Row | half-life | Structure (SMILES)
22 | > 1 h | COCCCOc1ccc(-c2nccc(-c3cc4c([nH]3)C3(CCCNC3)CNC4=O)n2)cn1 (racemic)
23 | > 1 h | O=C1NCC2(CCCNC2)c2[nH]c(-c3ccnc(-c4cc5ccccc5o4)n3)cc21 (racemic)

Row | Structure (SMILES) | half-life
24 | CCN1CCC2(CC1)CNC(=O)c1cc(-c3ccnc(-c4cc5ccccc5o4)n3)[nH]c12 | > 0.993 h

Test system: THP-1
Experiment: Cytotoxicity against human THP1 cells by Alamar blue assay
Type: cell-based
Details: not given

Row | Structure (SMILES) | Activity
25 | CCN1CCC2(CC1)CNC(=O)c1cc(-c3ccnc(-c4cc5ccccc5o4)n3)[nH]c12 | > 10 µM
26 | O=C1NCC2(CCCNC2)c2[nH]c(-c3ccnc(-c4cc5ccccc5o4)n3)cc21 (racemic) | Non-toxic

Test system: not listed separately
Experiment: Dissociation constant, pKa of the compound at pH 7.4
Type: physicochemical
Details: not given

Row | pKa | Structure (SMILES)
27 | 8.2 | COCCCOc1ccc(-c2nccc(-c3cc4c([nH]3)C3(CCCNC3)CNC4=O)n2)cn1 (racemic)
28 | 8.4 | O=C1NCC2(CCCNC2)c2[nH]c(-c3ccnc(-c4cc5ccccc5o4)n3)cc21 (racemic)

Row | Structure (SMILES) | pKa
29 | CCN1CCC2(CC1)CNC(=O)c1cc(-c3ccnc(-c4cc5ccccc5o4)n3)[nH]c12 | 8.6

Test system: THP-1
Experiment: Antiinflammatory activity in human THP1 cells assessed as inhibition of LPS-induced TNFalpha production pretreated 30 mins before LPS challenge measured after 4 hrs
Type: functional, cell-based
Details: not given

Row | Structure (SMILES) | EC50
30 | COCCCOc1ccc(-c2nccc(-c3cc4c([nH]3)C3(CCCNC3)CNC4=O)n2)cn1 (racemic) | 1500 nM
31 | CCN1CCC2(CC1)CNC(=O)c1cc(-c3ccnc(-c4cc5ccccc5o4)n3)[nH]c12 | 1600 nM

Test system: not listed separately
Experiment: Half life in human liver microsomes
Type: ADME, Microsome
Details: not given

Row | half-life | Structure (SMILES)
32 | > 1 h | COCCCOc1ccc(-c2nccc(-c3cc4c([nH]3)C3(CCCNC3)CNC4=O)n2)cn1 (racemic)
33 | > 1 h | O=C1NCC2(CCCNC2)c2[nH]c(-c3ccnc(-c4cc5ccccc5o4)n3)cc21 (racemic)

Row | Structure (SMILES) | half-life
34 | CCN1CCC2(CC1)CNC(=O)c1cc(-c3ccnc(-c4cc5ccccc5o4)n3)[nH]c12 | > 1 h

Target: Mitogen-activated protein kinase 1 (Homo sapiens) (UniProt P28482)
Experiment: Inhibition of ERK2 at 1 uM
Details: not given

Chain of Mitogen-activated protein kinase 1 (Homo sapiens) (P28482 whole entry, looked up): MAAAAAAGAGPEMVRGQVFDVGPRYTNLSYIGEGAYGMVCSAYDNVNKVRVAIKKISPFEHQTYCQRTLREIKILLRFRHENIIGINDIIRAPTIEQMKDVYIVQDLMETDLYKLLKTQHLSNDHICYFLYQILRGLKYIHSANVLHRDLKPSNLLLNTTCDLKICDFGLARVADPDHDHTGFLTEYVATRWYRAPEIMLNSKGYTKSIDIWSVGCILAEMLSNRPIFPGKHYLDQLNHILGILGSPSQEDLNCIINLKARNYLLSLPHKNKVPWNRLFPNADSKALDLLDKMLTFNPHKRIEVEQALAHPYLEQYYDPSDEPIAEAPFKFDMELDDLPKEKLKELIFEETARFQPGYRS

Row | inhibition | Structure (SMILES)
35 | > 80% | COCCCOc1ccc(-c2nccc(-c3cc4c([nH]3)C3(CCCNC3)CNC4=O)n2)cn1 (racemic)
36 | > 80% | O=C1NCC2(CCCNC2)c2[nH]c(-c3ccnc(-c4cc5ccccc5o4)n3)cc21 (racemic)

Row | Structure (SMILES) | inhibition
37 | CCN1CCC2(CC1)CNC(=O)c1cc(-c3ccnc(-c4cc5ccccc5o4)n3)[nH]c12 | > 80%

Target: Serine/threonine-protein kinase pim-1 (Homo sapiens) (UniProt P11309)
Experiment: Inhibition of PIM1 at 1 uM
Details: not given

Chain of Serine/threonine-protein kinase pim-1 (Homo sapiens) (P11309 whole entry, looked up): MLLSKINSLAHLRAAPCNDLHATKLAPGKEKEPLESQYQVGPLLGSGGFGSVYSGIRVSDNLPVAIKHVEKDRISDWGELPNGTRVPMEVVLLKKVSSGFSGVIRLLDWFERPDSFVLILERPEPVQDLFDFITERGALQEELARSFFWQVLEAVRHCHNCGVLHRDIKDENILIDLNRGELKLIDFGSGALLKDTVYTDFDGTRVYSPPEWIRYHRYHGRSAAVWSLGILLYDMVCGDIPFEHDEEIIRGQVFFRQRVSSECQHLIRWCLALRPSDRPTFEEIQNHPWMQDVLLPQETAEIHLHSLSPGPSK

Row | inhibition | Structure (SMILES)
38 | > 80% | COCCCOc1ccc(-c2nccc(-c3cc4c([nH]3)C3(CCCNC3)CNC4=O)n2)cn1 (racemic)
39 | > 80% | O=C1NCC2(CCCNC2)c2[nH]c(-c3ccnc(-c4cc5ccccc5o4)n3)cc21 (racemic)

Row | Structure (SMILES) | inhibition
40 | CCN1CCC2(CC1)CNC(=O)c1cc(-c3ccnc(-c4cc5ccccc5o4)n3)[nH]c12 | > 80%

Target: T1, MAP kinase-activated protein kinase 2
Experiment: Inhibition of MK2 pretreated for 30 mins before fluorescein labeled substrate peptide addition measured after 2 hrs by IMAP assay
Details: not given

Row | EC50 | Structure (SMILES)
41 | 21 nM | COCCCOc1ccc(-c2nccc(-c3cc4c([nH]3)C3(CCCNC3)CNC4=O)n2)cn1 (racemic)
42 | 11 nM | O=C1NCC2(CCCNC2)c2[nH]c(-c3ccnc(-c4cc5ccccc5o4)n3)cc21 (racemic)

Row | Structure (SMILES) | EC50
43 | CCN1CCC2(CC1)CNC(=O)c1cc(-c3ccnc(-c4cc5ccccc5o4)n3)[nH]c12 | 59 nM

Test system: not listed separately
Experiment: in vitro
Details: human, Caco-2
Description: Permeability across human Caco2 cells

Row | Papp | Structure (SMILES)
44 | 4.2 ×10⁻⁶ cm/s | COCCCOc1ccc(-c2nccc(-c3cc4c([nH]3)C3(CCCNC3)CNC4=O)n2)cn1 (racemic)
45 | 1.5 ×10⁻⁶ cm/s | O=C1NCC2(CCCNC2)c2[nH]c(-c3ccnc(-c4cc5ccccc5o4)n3)cc21 (racemic)

Row | Structure (SMILES) | Papp
46 | CCN1CCC2(CC1)CNC(=O)c1cc(-c3ccnc(-c4cc5ccccc5o4)n3)[nH]c12 | 0.8 ×10⁻⁶ cm/s
